Laboratory results: patent publication US8822430B2 (Gilead Sciences, Inc., priority 2009, dated 2014)

These molecules were tested on HCV 1b RLuc cells (dicistronic genotype 1b Con1 replicon) (assay: Renilla luciferase (RLuc)-based HCV replicon reporter assay). Conditions: HCV 1b RLuc replicon, 72 hours; read-out: Activity (antiviral potency [EC50]).
Format: cell-based, HCV genotype 1b
In short: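 EC50 values were calculated by non-linear regression of Renilla luciferase signal from lysed cells after 72 h of compound exposure. Cells harboured a genotype 1b Con1 dicistronic replicon encoding RLuc. Compounds were serially diluted in DMSO from 10 mM stocks into culture media.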

With COC(=O)N[C@H](C(=O)N1CCC[C@H]1c1ncc(-c2ccc(-c3ccc(-c4cnc([C@@H]5CSC(c6ccncc6)N5C(=O)OCc5ccccc5)[nH]4)cc3)cc2)[nH]1)C(C)C (single isomer, unassigned) [drawing 1302] as the molecule, how does the EC50 read?
The EC50 was 0.0209 nM.

Same assay, conditions: Hepatitis C virus, 72 h, HCV 1b RLuc replicon, 72 hours; read-out: Activity (antiviral potency [EC50])

With COC(=O)N[C@H](C(=O)N1CC2(CC2)C[C@H]1c1ncc(-c2ccc3cc(-c4ccc(-c5cnc([C@@H]6[C@H]7CC[C@H](C7)N6C(=O)[C@@H](NC(=O)OC)C6CCOCC6)[nH]5)cc4)ccc3c2)[nH]1)C1CCOCC1 as the molecule, how does the EC50 read?
Its EC50 is 0.0255 nM.

With COC(=O)NC(C(=O)N1CCC[C@H]1c1ncc(-c2ccc(-c3ccc4cc(-c5cnc([C@@H]6CCCN6C(=O)[C@@H](NC(=O)OC)C(C)C)[nH]5)ccc4c3)cc2)[nH]1)c1ccccc1 (stereo partly shown) as the molecule, how does the EC50 read?
Its EC50 is 0.0097 nM.

How did the EC50 turn out when COC(=O)N[C@H](C(=O)N1CCC[C@H]1c1ncc(-c2ccc3cc(-c4ccc(-c5cnc([C@@H]6C[C@@H](c7ccccc7)CN6C(=O)[C@@H](NC(=O)OC)C(C)C)[nH]5)cc4)ccc3c2)[nH]1)C(C)C was run?
Its EC50 is 0.0724 nM.

COC(=O)N[C@@H](CCOCC(F)(F)F)C(=O)N1CCC[C@H]1c1ncc(-c2ccc(-c3ccc(-c4cnc([C@@H]5CCCN5C(=O)[C@@H](NC(=O)OC)C(C)C)[nH]4)cc3)cc2)[nH]1 was tested. Which EC50 did it give?
Its EC50 is 0.0273 nM.

With COC(=O)N[C@H](C(=O)N1CCC[C@H]1c1ncc(-c2ccc(-c3ccc(-c4ccc(-c5cnc([C@@H]6CCCN6C(=O)[C@@H](NC(=O)OC)C(C)C)[nH]5)cc4)s3)cc2)[nH]1)C(C)C as the molecule, how does the EC50 read?
The EC50 was 0.0989 nM.

Which EC50 does the source give for COCC[C@H](NC(=O)OC)C(=O)N1CCS[C@H]1c1ncc(-c2ccc(-c3ccc4cc(-c5cnc([C@@H]6CC7(CC7)CN6C(=O)[C@@H](NC(=O)OC)C(C)C)[nH]5)ccc4c3)cc2)[nH]1 here?
Its EC50 is 0.0402 nM.

How did the EC50 turn out when COC(=O)N[C@@H](C)C(=O)N1[C@@H]2CC[C@@H](C2)[C@H]1c1ncc(-c2ccc3c(c2)CCc2cc(-c4cnc([C@@H]5CCCN5C(=O)[C@@H](NC(=O)OC)C(C)C)[nH]4)ccc2-3)[nH]1 was run?
The EC50 was 0.0126 nM.

With COC(=O)NC(C(=O)N1CCC[C@H]1c1ncc(-c2ccc(-c3ccc4cc(-c5cnc([C@@H]6CCCN6C(=O)[C@@H](NC(=O)OC)C(C)C)[nH]5)ccc4c3)cc2)[nH]1)c1ccsc1 (stereo partly shown) as the molecule, how does the EC50 read?
The EC50 was 0.0197 nM.

COC(=O)N[C@H](C(=O)N1CCC[C@H]1CNC(=O)c1ccc(-c2ccc(-c3cnc([C@@H]4CCCN4C(=O)[C@@H](NC(=O)OC)C(C)C)[nH]3)cc2)cc1)C(C)C was tested. Which EC50 did it give?
The EC50 was 0.0915 nM.

For COC(=O)N[C@@H](CCS(C)(=O)=O)C(=O)N1C[C@@H](C#N)C[C@H]1c1ncc(-c2ccc(-c3ccc4cc(-c5cnc([C@@H]6CC7(CC7)CN6C(=O)[C@@H](NC(=O)OC)C(C)C)[nH]5)ccc4c3)cc2)[nH]1, which EC50 is on record?
Its EC50 is 0.256 nM.

For COC(=O)N[C@H](C(=O)N1CC2(CC2)C[C@H]1c1ncc(-c2ccc3cc(-c4ccc(-c5cnc([C@@H]6[C@H]7CC[C@H](C7)N6C(=O)[C@H](NC(=O)OC)c6ccccc6)[nH]5)cc4)ccc3c2)[nH]1)C(C)C, which EC50 is on record?
The EC50 was 0.0261 nM.

Which EC50 does the source give for COC(=O)N[C@H](C(=O)N1CCC[C@H]1c1ncc(-c2ccc(-c3ccc(-c4cnc([C@@H]5CCCN5C(=O)[C@@H](NC(=O)OC)C(C)C)[nH]4)cc3)cc2)[nH]1)C(C)C here?
The EC50 was 0.0719 nM.

For COC(=O)N[C@H](C(=O)N1CCC[C@H]1c1ncc(-c2ccc(-c3ccc(-c4cnc([C@@H]5CN(c6ccccc6)CN5C(=O)[C@@H](NC(=O)OC)C(C)C)[nH]4)cc3)cc2)[nH]1)C(C)C, which EC50 is on record?
Its EC50 is 0.0074 nM.

Which EC50 does the source give for COC(=O)N[C@H](C(=O)N1CCC[C@H]1c1ncc(-c2ccc3cc(-c4ccc(-c5cnc([C@@H]6CC(=O)CN6C(=O)[C@@H](NC(=O)OC)C(C)C)[nH]5)cc4)ccc3c2)[nH]1)C(C)C here?
The EC50 was 0.0103 nM.

How did the EC50 turn out when COC(=O)N[C@H](C(=O)N1CCC[C@H]1c1ncc(-c2ccc(-c3ccc(-c4cnc(CN5CCC[C@@H](NC(=O)OC(C)(C)C)C5=O)[nH]4)cc3)cc2)[nH]1)C(C)C was run?
Its EC50 is 0.0345 nM.

How did the EC50 turn out when COC(=O)N[C@H](C(=O)N1CC2(CC2)C[C@H]1c1ncc(-c2ccc3cc(-c4ccc(-c5cnc([C@@H]6[C@H]7CC[C@H](C7)N6C(=O)[C@@H](NC(=O)OC)C(C)OC)[nH]5)cc4)ccc3c2)[nH]1)C(C)OC (stereo partly shown) was run?
Its EC50 is 0.0201 nM.

With COC(=O)N[C@H](C(=O)N1CCC[C@H]1c1ncc(-c2ccc3cc(-c4ccc(-c5cnc([C@@H]6CCCN6C(=O)[C@H](c6ccccc6)C(C)C)[nH]5)cc4)ccc3c2)[nH]1)C(C)C as the molecule, how does the EC50 read?
The EC50 was 0.0112 nM.

Which EC50 does the source give for COC(=O)NC(C(=O)N1CCC[C@H]1c1ncc(-c2ccc3cc(-c4ccc(-c5cnc([C@@H]6C[C@H](OC(F)F)CN6C(=O)[C@@H](NC(=O)OC)C(C)C)[nH]5)cc4)ccc3c2)[nH]1)c1ccccc1 (stereo partly shown) here?
Its EC50 is 0.0171 nM.

For COC(=O)N[C@H](C(=O)N1CCC[C@H]1c1ncc(C23CCC(c4ccc(-c5cnc([C@@H]6CCCN6C(=O)[C@H](NC(=O)OC)C(C)C)[nH]5)cc4)(CC2)CC3)[nH]1)C(C)C, which EC50 is on record?
Its EC50 is 39.7 nM.

With COC(=O)N[C@@H](CCOCC(F)(F)F)C(=O)N1CCC[C@H]1c1ncc(-c2ccc(-c3ccc(-c4cnc([C@@H]5CCCN5C(=O)[C@H](CCOCC(F)(F)F)NC(=O)OC)[nH]4)cc3)cc2)[nH]1 as the molecule, how does the EC50 read?
Its EC50 is 0.0244 nM.

For COC(=O)N[C@H](C(=O)N1CCC[C@H]1c1ncc(-c2ccc3c(c2)CCc2cc(-c4cnc([C@@H]5CCCN5C(=O)[C@@H](NC(=O)OC)C(C)C)[nH]4)ccc2-3)[nH]1)C(C)C, which EC50 is on record?
The EC50 was 0.0099 nM.

COC(=O)N[C@H](C(=O)N1C[C@@H](C#N)C[C@H]1c1ncc(-c2ccc3c(c2)C(F)(F)c2cc(-c4ccc5nc([C@@H]6[C@H]7CC[C@H](C7)N6C(=O)[C@@H](NC(=O)OC)C(C)C)[nH]c5c4)ccc2-3)[nH]1)C(C)C was tested. Which EC50 did it give?
The EC50 was 0.0059 nM.

How did the EC50 turn out when COC(=O)N[C@H](C(=O)N1CCC[C@H]1c1ncc(-c2ccc(-c3ccc(-c4cnc([C@@H]5CN(C(=O)OC)CN5C(=O)[C@@H](NC(=O)OC)C(C)C)[nH]4)cc3)cc2)[nH]1)C(C)C was run?
The EC50 was 0.03 nM.

With COC(=O)N[C@H](C(=O)N1CCC[C@H]1c1nc(C(=O)N2CCC3(CC2)CCN(C(=O)c2c[nH]c([C@@H]4CCCN4C(=O)[C@@H](NC(=O)OC)C(C)C)n2)CC3)c[nH]1)C(C)C as the molecule, how does the EC50 read?
The EC50 was over 44.4 nM.

COC(=O)N[C@H](C(=O)N1CCC[C@H]1C(=O)Nc1ccc(-c2ccc(-c3ccc(-c4cnc([C@@H]5CCCN5C(=O)[C@@H](NC(=O)OC)C(C)C)[nH]4)cc3)cc2)cc1)C(C)C was tested. Which EC50 did it give?
Its EC50 is 0.0875 nM.

COC(=O)N[C@H](C(=O)N1CCC[C@H]1c1ncc(-c2ccc3c(c2)CN(C)Cc2cc(-c4cnc([C@@H]5CCCN5C(=O)[C@@H](NC(=O)OC)C(C)C)[nH]4)ccc2-3)[nH]1)C(C)C was tested. Which EC50 did it give?
Its EC50 is 11.1 nM.

How did the EC50 turn out when COC(=O)NC(C(=O)N1CCC[C@H]1c1ncc(-c2ccc(-c3ccc4cc(-c5cnc([C@@H]6CCCN6C(=O)[C@@H](NC(=O)OC)C(C)C)[nH]5)ccc4c3)cc2)[nH]1)=C1CCOCC1 was run?
Its EC50 is 0.0483 nM.

COC(=O)N[C@H](C(=O)N1CCC[C@H]1c1nc2ccc(-c3ccc(-c4ccc(-c5cnc([C@@H]6[C@H]7CC[C@H](C7)N6C(=O)[C@@H](NC(=O)OC)C(C)C)[nH]5)cc4)cc3)cc2[nH]1)C(C)C was tested. Which EC50 did it give?
The EC50 was 0.0213 nM.

With COC(=O)N[C@H](C(=O)N1CC2(CC2)C[C@H]1c1ncc(-c2ccc3cc(-c4ccc(-c5cnc([C@@H]6CC7(CN6C(=O)[C@@H](NC(=O)OC)C(C)C)OCCO7)[nH]5)cc4)ccc3c2)[nH]1)C(C)C as the molecule, how does the EC50 read?
Its EC50 is 0.0063 nM.

COC(=O)N[C@H](C(=O)N1CCC[C@H]1c1ncc(-c2ccc3cc(-c4ccc5[nH]c([C@@H]6CCN6C(=O)[C@@H](NC(=O)OC)C(C)C)nc5c4)ccc3c2)[nH]1)C(C)C was tested. Which EC50 did it give?
Its EC50 is 0.026 nM.

Which EC50 does the source give for COC(=O)N[C@@H](CCS(C)(=O)=O)C(=O)N1CC2(CC2)C[C@H]1c1ncc(-c2ccc(-c3ccc4cc(-c5cnc([C@@H]6C[C@H](C#N)CN6C(=O)[C@@H](NC(=O)OC)C(C)C)[nH]5)ccc4c3)cc2)[nH]1 here?
The EC50 was 0.0405 nM.

For COC(=O)N[C@H](C(=O)N1CC2(CC2)C[C@H]1c1nc(-c2ccc3cc(-c4ccc(-c5cnc([C@@H]6SCCN6C(=O)[C@@H](NC(=O)OC)C6CCOCC6)[nH]5)cc4)ccc3c2)c[nH]1)C(C)C, which EC50 is on record?
The EC50 was 0.132 nM.

How did the EC50 turn out when COC(=O)N[C@H](C(=O)N1CCC[C@H]1c1ncc(-c2ccc(-c3ccc(-c4cnc([C@@H]5CN(S(C)(=O)=O)CN5C(=O)[C@@H](NC(=O)OC)C(C)C)[nH]4)cc3)cc2)[nH]1)C(C)C was run?
The EC50 was 0.0383 nM.

Which EC50 does the source give for COC(=O)N[C@@H](CCSC)C(=O)N1CCC[C@H]1c1nc(-c2ccc3c(c2)C(F)(F)c2cc(-c4cnc([C@@H]5CC6(CC6)CN5C(=O)[C@@H](NC(=O)OC)C(C)C)[nH]4)ccc2-3)c[nH]1 here?
The EC50 was 0.0204 nM.

For COC(=O)N[C@H](C(=O)N1CC2(CC2)C[C@H]1c1ncc(-c2ccc3c(c2)oc2cc(-c4ccc5nc([C@@H]6[C@H]7CC[C@H](C7)N6C(=O)[C@@H](NC(=O)OC)C(C)C)[nH]c5c4)ccc23)[nH]1)C(C)C, which EC50 is on record?
The EC50 was 0.0041 nM.

For COC(=O)N[C@H](C(=O)N1CC2(CC2)C[C@H]1c1ncc(-c2ccc(-c3ccc4cc(-c5cnc([C@@H]6CC7(CC7)CN6C(=O)[C@@H](NC(=O)OC)C(C)C)[nH]5)ccc4c3)cc2)[nH]1)C(C)C, which EC50 is on record?
Its EC50 is 0.0048 nM.

For CCC(=O)N[C@H](C(=O)N1CC2(CC2)C[C@H]1c1ncc(-c2ccc(-c3ccc(-c4cnc([C@@H]5CCCN5C(=O)[C@@H](NC(=O)OC)C(C)C)[nH]4)cc3)cc2)[nH]1)C(C)C, which EC50 is on record?
The EC50 was 0.013 nM.

Which EC50 does the source give for COC(=O)N[C@H](C(=O)N1CCC[C@H]1c1ncc(-c2ccc(-c3cccc4c(-c5cnc([C@@H]6CCCN6C(=O)[C@@H](NC(=O)OC)C(C)C)[nH]5)cccc34)cc2)[nH]1)C(C)C here?
Its EC50 is 0.0032 nM.

How did the EC50 turn out when COC(=O)N[C@H](C(=O)N1CCC[C@H]1c1ncc(-c2ccc3c(c2)sc2cc(-c4cnc([C@@H]5CCCN5C(=O)[C@@H](NC(=O)OC)C(C)C)[nH]4)ccc23)[nH]1)C(C)C was run?
Its EC50 is 0.0074 nM.

Which EC50 does the source give for COC(=O)N[C@@H](CCOC(F)F)C(=O)N1CCC[C@H]1c1ncc(-c2ccc(-c3ccc(-c4cnc([C@@H]5CC6(CN5C(=O)[C@@H](NC(=O)OC)C(C)C)OCCO6)[nH]4)cc3)cc2)[nH]1 here?
Its EC50 is 0.128 nM.

Which EC50 does the source give for COC(=O)N[C@@H](CCS(C)(=O)=O)C(=O)N1[C@@H]2CC[C@@H](C2)[C@H]1c1nc2ccc(-c3ccc4c(c3)C(F)(F)c3cc(-c5cnc([C@@H]6CC7(CC7)CN6C(=O)[C@@H](NC(=O)OC)C(C)C)[nH]5)ccc3-4)cc2[nH]1 here?
The EC50 was 0.0218 nM.

For COC(=O)N[C@H](C(=O)N1CCC[C@H]1c1ncc(-c2ccc3cc(C#Cc4ccc5nc([C@@H]6[C@H]7CC[C@H](C7)N6C(=O)[C@@H](NC(=O)OC)C(C)C)[nH]c5c4)ccc3c2)[nH]1)C(C)C, which EC50 is on record?
Its EC50 is 0.0195 nM.
